Patent US20160264602A1, “MANUFACTURING METHOD OF SILATRANE WITH THIOL GROUP AND PRESERVATION METHOD THEREOF” (NATIONAL CHUNG CHENG UNIVERSITY, priority 2015, published 2016)

How the values were obtained:
[1] = Solubility of MPS in DMSO as time passes after manufacture; assay type: physicochemical
Protocol: No matter what kind of foregoing method, the product must be dissolved in organic solvent within 30 minutes. The solubility of MPS in aqueous phase or organic phase solvents will decrease as time passes.

[2] = Tests of preserving method: MPS dissolution and self-assembly of gold nanoparticles on MPS-modified glass substrate; assay type: physicochemical
Protocol: Performing the tests of three preserving methods that preserve MPS under atmospheric condition, under nitrogen and in organic solvent.
Most silane molecules in general are placed in a brown bottle and stored at 4° C. To investigate the preservation conditions for MPS, the efficiency of the self-assembly reaction of gold nanoparticles on the MPS-modified substrate is used as an indirect indicator. There are two advantages by this approach. First, gold nanoparticles have a characteristic surface plasmon resonance band which can be easily observed in a visible light spectrum and its absorbance is related to the surface coverage of the nanoparticles modified on the surface of the substrate. Second, the peak width of the surface plasmon resonance band is related to the uniformity of the gold nanoparticles distributed on the surface of the substrate. In the present study, gold nanoparticles with 13 nm in diameter are chosen, and the characteristic absorption peak is about 530 nm. After synthesis, purified and dried MPS are separately stored under atmospheric condition at 4° C. and in a brown bottle at room temperature under nitrogen.
If the purified MPS is dissolved in organic solvent and then preserved under atmospheric condition and room temperature without avoiding light, the activity of the sample can be preserved for at least 1 year and 6 months (ex. 1 year and 7 months) (referring to FIG. 3(a)).
The activity of the sample is tested with the self-assembly reaction of gold nanoparticles on the surface of the substrate treated by the sample and then observed by visible light spectroscopy and scanning electron microscopy. The results are shown in FIG. 4(a) and FIG. 4(b) wherein, all experiments are performed by immersing the substrate in a methanol solution of MPS and then modifying gold nanoparticles on the treated substrate for 30 minutes.

Structure (SMILES): SCCC[Si]12OCCN(CCO1)CCO2 [MPS, (3-mercaptopropyl)silatrane]
- solubility of MPS in dimethyl sulfoxide (DMSO) ([1]; after 1 week): about 40%
- solubility of MPS in dimethyl sulfoxide (DMSO) ([1]; after 30 minutes): about 99%
- solubility of MPS in dimethyl sulfoxide (DMSO) ([1]; after 1 day): about 90%
- dissolution of preserved sample ([2]; purified and dried MPS in brown bottle at room temperature under nitrogen, after 5 weeks): cannot be dissolved
- dissolution of preserved sample ([2]; purified and dried MPS under atmospheric condition at 4° C., after 3 weeks): cannot be dissolved in any solvent
- time for which MPS can be preserved ([2]; traditional nitrogen preservation method under dark condition): about two
